Tests used:
[1] = system: ApoE−/− macrophage foam cells; experiment: Capacity of HDL isolated from treated mice to reduce macrophage cholesterol; format: cell-based, mouse; settings: HDL 25 μg protein/ml, 24 h
Experimental: (§1) Mice: Ldlr^−/− and WT on C57BL/6 background mice were obtained from the Jackson Laboratory. Animal protocols were performed according to the regulations of Vanderbilt University's Institutional Animal Care and Usage Committee. Mice were maintained on chow or a Western-type diet containing 21% milk fat and 0.15% cholesterol (Teklad). Eight week old, female mice were pretreated mice with vehicle alone (Water) or containing either 1 g/L of 4-HOBA or 1 g/L of 2-HOBA. After two weeks, the mice continued to receive treatment and were administered a Western diet for 16 weeks to induce hypercholesterolemia and atherosclerosis.
HDL Isolation from Mouse Plasma and Measurement of HDL Capacity to Reduce Macrophage Cholesterol: HDL was isolated from mouse plasma using HDL Purification Kit (Cell BioLabs, Inc.) following the manufacturer's protocol. Briefly, apoB containing lipoproteins and HDL were sequentially precipitated with dextran sulfate. The HDL was then resuspended and washed. After removing the dextran sulfate, the HDL was dialyzed against PBS. To measure the capacity of the HDL to reduce macrophage cholesterol, apoE^−/− macrophages were cholesterol enriched by incubation for 48 h in DMEM containing 100 μg protein/ml of acetylated LDL. […] Cellular cholesterol was measured before and after incubation with HDL using an enzymatic cholesterol assay as described.

[2] = background statement; cited from earlier work
MDA-HDL adducts = experiment: Plasma MDA-HDL sandwich ELISA; format: in vivo, mouse; settings: western diet 16 weeks
Experimental: as §1
(§2) Measurement of MDA-LDL, MDA-HDL, and MDA-ApoAI: Sandwich ELISA was used to measure plasma MDA-LDL and MDA-HDL levels following the manufacturer's instructions (Cell BioLabs, Inc.). Briefly, isolated LDL or HDL samples and MDA-HDL standards were added onto anti-MDA coated plates, and after blocking, the samples were incubated with biotinylated anti-apoB or anti-ApoAI primary antibody. The samples were then incubated for 1 h with streptavidin-enzyme conjugate and 15 min with substrate solution. After stopping the reaction, the O.D. was measured at 450 nm wavelength. MDA-ApoAI was detected in mouse plasma by immunoprecipitation of ApoAI and western blotting. […] Proteins were visualized and quantitated by Odyssey 3.0 Quantification software (LI-COR).

[3] = background statement; cited from earlier work; remark: listed apart in the source
[4] = system: MDA content of proximal aortic atherosclerotic lesions in Ldlr^−/− mice; experiment: MDA immunofluorescence of proximal aortic atherosclerotic lesions; format: in vivo, mouse
Experimental: as §1
(§3) Atherosclerosis Analyses and Cross-section Immunofluorescence Staining: The extent of atherosclerosis was examined both in Oil-Red-O-stained cross-sections of the proximal aorta and by en face analysis using the KS300 imaging system (Kontron Elektronik GmbH). For immunofluorescence staining, 5 μm cross-sections of the proximal aorta were fixed in cold acetone (Sigma), blocked in Background Buster (Innovex), incubated with indicated primary antibodies (MDA and CD68) at 4° C. for overnight. After incubation with fluorescent labeled secondary antibodies at 37 C for 1 hour, the nucleus was counter stained with Hoechst. Images were captured with a fluorescence microscope (Olympus IX81) and SlideBook 6 (Intelligent-Image) software and quantitated using ImageJ software (NIH).

MDA-apoAI adducts = experiment: Plasma apoAI immunoprecipitation and western blotting for MDA-apoAI and apoAI; format: in vivo, mouse; settings: western diet 16 weeks
Experimental: as §1
Measurement of MDA-LDL, MDA-HDL, and MDA-ApoAI: Sandwich ELISA was used to measure plasma MDA-LDL and MDA-HDL levels following the manufacturer's instructions (Cell BioLabs, Inc.). Briefly, isolated LDL or HDL samples and MDA-HDL standards were added onto anti-MDA coated plates, and after blocking, the samples were incubated with biotinylated anti-apoB or anti-ApoAI primary antibody. The samples were then incubated for 1 h with streptavidin-enzyme conjugate and 15 min with substrate solution. After stopping the reaction, the O.D. was measured at 450 nm wavelength. MDA-ApoAI was detected in mouse plasma by immunoprecipitation of ApoAI and western blotting. Briefly, 50 μl of mouse plasma were prepared with 450 μL of IP Lysis Buffer (Pierce) plus 0.5% protease inhibitor mixture (Sigma), and immunoprecipitated with 10 μg of polyclonal antibody against mouse ApoAI (Novus). Then 25 μL of magnetic beads (Invitrogen) was added, and the mixture was incubated for 1 h at 4° C. with rotation. The magnetic beads were then collected, washed three times, and SDS-PAGE sample buffer with β-mercaptoethanol was added to the beads. After incubation at 70° C. for 5 min, magnetic field was applied to the Magnetic Separation Rack (New England), and the supernatant was used for detecting mouse ApoAI or MDA. For Western blotting, 30-60 μg of proteins was resolved by NuPAGE Bis-Tris electrophoresis (Invitrogen), and transferred onto nitrocellulose membranes (Amersham Bioscience). Membranes were probed with primary rabbit antibodies specific for ApoAI (Novus) or MDA (Cell signaling) and fluorescent tagged IRDye 680 (LI-COR) secondary antibody. Proteins were visualized and quantitated by Odyssey 3.0 Quantification software (LI-COR).

[5] = background statement; cited from earlier work; remark: listed apart in the source
primary macrophages = experiment: H2O2 induced apoptosis, Annexin V staining, macrophages; format: cell-based, mouse; settings: 250 μM H2O2, 24 h; compared to vehicle or 4-HOBA
Experimental: (§4) Cell Culture: Peritoneal macrophages were isolated from mice 72 hours post injection of 3% thioglycollate and maintained in DMEM plus 10% fetal bovine serum (FBS, Gibco) as previously described. Human aortic endothelial cells (HAECs) were obtained from Lonza and maintained in endothelial cell basal medium-2 plus 1% FBS and essential growth factors (Lonza).
(§5) In vitro Cellular Apoptosis and Analysis of Lesion Apoptosis and Efferocytosis: Cell apoptosis was induced as indicated and detected by fluorescent labeled Annexin V staining and quantitated by either Flow Cytometry (BD 5 LSRII) or counting Annexin V positive cells in images captured under a fluorescent microscope. The apoptotic cells in atherosclerotic lesion were measured by TUNEL staining of cross-sections of atherosclerotic proximal aorta as previously described. The TUNEL positive cells not associated with live macrophages were considered free apoptotic cells and macrophage-associated apoptotic cells were considered phagocytosed as a measure of lesion efferocytosis as previously described.

aortic endothelial cells = experiment: H2O2 induced apoptosis, Annexin V staining, endothelial cells; format: cell-based, mouse; settings: 250 μM H2O2, 24 h; compared to vehicle or 4-HOBA
Experimental: as §4, §5

[6] = system: atherosclerotic lesions of Ldlr^−/− mice; experiment: Lesion apoptosis (TUNEL) and efferocytosis in proximal aorta sections; format: in vivo, mouse
Experimental: as §1, §5

MDA-LDL adducts = experiment: Plasma MDA-LDL sandwich ELISA; format: in vivo, mouse; settings: western diet 16 weeks
Experimental: as §1, §2

peritoneal macrophages = experiment: Macrophage inflammatory response, real time PCR of IL-1β, IL-6, TNF-α mRNA; format: cell-based, mouse; settings: oxidized LDL, 24 h
Experimental: as §4
RNA Isolation and Real-Time RT-PCR: Total RNA was extracted and purified using Aurum Total RNA kit (Bio-Rad) according to the manufacturer's protocol. Complementary DNA was synthesized with iScript reverse transcriptase (Bio-Rad). Relative quantitation of the target mRNA was performed using specific primers, SYBR probe (Bio-Rad), and iTaqDNA polymerase (Bio-Rad) on IQ5 thermocylcer (Bio-Rad) and normalized with 18S, as described earlier. 18S, IL-1β and TNF-α primers used were as described earlier.

macrophages = experiment: In vitro modification of LDL with MDA, then macrophage cholesterol content; format: cell-based; settings: 2-HOBA present during LDL (5 mg/mL) modification with MDA (10 mM); versus vehicle; LDL with macrophages 24 h
Experimental: Modification of HDL and LDL with MDA: MDA was prepared immediately before use by rapid acid hydrolysis of maloncarbonyl bis-(dimethylacetal) as described. Briefly, 20 μL of 1 M HCl was added to 200 μL of maloncarbonyl bis-(dimethylacetal), and the mixture was incubated for 45 min at room temperature. The MDA concentration was determined by absorbance at 245 nm, using the coefficient factor 13, 700 M-1 cm-1. HDL (10 mg of protein/mL) and increasing doses of MDA (0, 0.125 mM, 0.25 mM, 0.5 mM, 1 mM) were incubated at 37° C. for 24 h in 50 mM sodium phosphate buffer (pH7.4) containing DTPA 100 μM. Reactions were initiated by adding MDA and stopped by dialysis of samples against PBS at 4° C. LDL (5 mg/mL) was modified in vitro with MDA (10 mM) in the presence of vehicle alone or with 2-HOBA at […] for 24 h in 50 mM sodium phosphate buffer (pH7.4) containing DTPA 100 μM. Reactions were initiated by adding MDA and stopped by dialysis of samples against PBS at 4° C. The LDL samples were incubated for 24 h with macrophages and the cholesterol content of the cells was measured using an enzymatic cholesterol assay as described.

[7] = system: atherosclerotic lesions of Ldlr^−/− mice; experiment: Masson's Trichrome staining of lesions (collagen content, fibrous cap thickness, necrotic core); format: in vivo, mouse
Experimental: as §1
Masson's Trichrome Staining: Masson's Trichrome Staining was applied for measurement of atherosclerotic lesion collagen content, fibrous cap thickness and necrotic core size following the manufacture's instruction (Sigma) and as previously described. Briefly, 5 μm cross-sections of proximal atherosclerotic aorta root were fixed with Bouin's solution, stained with hematoxylin for nuclei (black), biebrich scarlet and phosphotungstic/phosphomolybdic acid for cytoplasm (red), and aniline blue for collagen (blue). Images were captured and analyzed for collagen content, atherosclerotic cap thickness and necrosis core by ImageJ software as described earlier.

[8] = system: hypercholesterolemic Ldlr^−/− mice; experiment: Atherosclerosis analysis (Oil-Red-O proximal aorta cross-sections and en face aorta) in western diet fed mice; format: in vivo, mouse; settings: western diet 16 weeks; for reduction of atherosclerosis, en face analysis of the aorta / reduction of the extent of proximal aortic atherosclerosis: 1 g/L in water
Experimental: as §1, §3

[9] = Body weight and plasma total cholesterol and triglyceride levels of treated mice; format: in vivo, mouse; settings: compared to vehicle or 4-HOBA; data not shown
Experimental: as §1

[10] = in contrast to vehicle or 4-HOBA
[11] = summary value, compared to vehicle or 4-HOBA
[12] = compared to Ldlr−/− mice consuming a chow diet

SMILES: NCc1ccccc1O [2-HOBA, 2-hydroxybenzylamine]
- efficiency of HDL from treated mice at reducing cholesterol stores in macrophage foam cells, fold ([1]; versus 4-HOBA treated mice): 1.7 fold
- efficiency of HDL from treated mice at reducing cholesterol stores in macrophage foam cells, fold ([1]; versus vehicle treated mice): 2.2 fold
- reaction with lipid dicarbonyls (dicarbonyl scavenger) [2]: rapidly reacts
- reduction of plasma MDA-HDL levels (MDA-HDL adducts; compared to 4-HOBA): 56%
- reduction of plasma MDA-HDL levels (MDA-HDL adducts; compared to vehicle): 57%
- reaction with lipid monocarbonyls [3]: not with lipid monocarbonyls
- reduction of MDA levels in the proximal aorta ([4]; compared to 4-HOBA): 66.8%
- reduction of MDA levels in the proximal aorta ([4]; compared to vehicle alone): 68.5%
- plasma MDA-apoAI adducts (MDA-apoAI adducts; [10]): dramatically reduced
- plasma apoAI levels (MDA-apoAI adducts; [10]): increased
- oral bioavailability [5]: orally bioavailable
- number of apoptotic cells in macrophage cultures (primary macrophages): markedly decreased
- number of apoptotic cells in endothelial cell cultures (aortic endothelial cells): markedly decreased
- number of TUNEL positive cells not associated with macrophages, fold increase (efferocytosis) ([6]; 4-HOBA treated mice versus 2-HOBA treated mice): 2.0 fold
- reduction of the number of TUNEL positive cells in the proximal aortic lesion ([6]; compared to 4-HOBA): 72.4%
- reduction of the number of TUNEL positive cells in the proximal aortic lesion ([6]; compared to vehicle): 72.9%
- reduction of the number of atherosclerotic lesion TUNEL positive cells ([6]; summary value, compared to 4-HOBA or vehicle treated mice): 72%
- number of TUNEL positive cells not associated with macrophages, fold increase (efferocytosis) ([6]; vehicle treated mice versus 2-HOBA treated mice): 1.9 fold
- reduction of plasma MDA-LDL levels (MDA-LDL adducts; compared to 4-HOBA): 54%
- reduction of plasma MDA-LDL levels (MDA-LDL adducts; compared to vehicle): 57%
- IL-1β mRNA level (peritoneal macrophages): significantly reduced
- IL-6 mRNA level (peritoneal macrophages): significantly reduced
- TNF-α mRNA level (peritoneal macrophages): significantly reduced
- ability of MDA modified LDL to increase cholesterol accumulation in macrophages (macrophages): reduced
- increase of collagen content of the proximal aorta ([7]; compared to 4-HOBA): 2.6 fold
- increase of collagen content of the proximal aorta ([7]; compared to vehicle): 2.7 fold
- increased collagen content ([7]; summary value): 2.7 fold
- increased fibrous cap thickness ([7]; summary value): 2.1 fold
- reduction in necrotic core ([7]; summary value, p<0.01): 69%
- decrease of % necrotic area in the proximal aorta ([7]; versus 4-HOBA): 73.5%
- fibrous cap thickness, fold greater ([7]; versus 4-HOBA treated mice): 2.29 fold
- decrease of % necrotic area in the proximal aorta ([7]; versus vehicle): 74.8%
- fibrous cap thickness, fold greater ([7]; versus vehicle treated mice): 2.31 fold
- reduction of atherosclerosis, en face analysis of the aorta ([8]; compared to 4-HOBA): 59.1%
- reduction of the extent of proximal aortic atherosclerosis ([8]; compared to 4-HOBA): 31.5%
- reduction of atherosclerosis, en face analysis of the aorta ([8]; compared to vehicle): 60.3%
- reduction of the extent of proximal aortic atherosclerosis ([8]; compared to vehicle): 31.1%
- decrease of atherosclerosis in en face aortas [8, 11]: 60%
- decrease of atherosclerosis in the proximal aortas [8, 11]: 31%
- effect on body weight [9]: did not affect

SMILES: NCc1ccc(O)cc1 [4-HOBA, 4-hydroxybenzylamine, reference compound]
- reaction with lipid dicarbonyls (dicarbonyl scavenger) [2]: ineffective
- plasma apoAI levels (MDA-apoAI adducts; [12]): reduced
- plasma levels of MDA-apoAI (MDA-apoAI adducts; [12]): markedly increased
- oral bioavailability [5]: orally bioavailable
- atheroprotection ([8]; Ldlr−/− mice): not atheroprotective

— patent US11389414B2, “Methods for treating atherosclerosis with gamma-ketoaldehyde scavengers” (Vanderbilt University, priority 2017, dated 2022)
